# Measured values reported in PubChem BioAssay (NCI).
# Values joined by “and” are separate entries in the source; they are usually repeats but may differ in a detail not shown here. Identical values can stand only once.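 Following 48 hours of exposure in 96-well plates, responses at five concentrations were used to interpolate endpoints linearly. GI50 marks 50% less growth. TGI marks complete inhibition of growth.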
# What was measured:
# Test in all cases: NCI anticancer screen, dose series, 48 h
# HOP-18 NSCLC = system: HOP-18 NSCLC
# SNB-78 CNS = system: SNB-78 CNS
# LXFL 529 NSCLC = system: LXFL 529 NSCLC
# DMS 273 small cell lung = system: DMS 273 small cell lung
# KM20L2 colon = system: KM20L2 colon
# DMS 114 small cell lung = system: DMS 114 small cell lung
# XF 498 CNS = system: XF 498 CNS
# RXF-631 renal = system: RXF-631 renal
# MDA-N = system: MDA-N
SMILES,TGI (HOP-18 NSCLC) [µM],TGI (SNB-78 CNS) [µM],TGI (LXFL 529 NSCLC) [µM],TGI (DMS 273 small cell lung) [µM],TGI (KM20L2 colon) [µM],TGI (DMS 114 small cell lung),TGI (XF 498 CNS) [µM],TGI (MDA-N) [µM],also measured
O=C1C(=c2ccc(=C3C(=O)c4ccc([N+](=O)[O-])cc4[N+]3=O)cc2)N([O-])c2cc([N+](=O)[O-])ccc21,> 100,> 100,> 100,> 100,> 100,–,–,–,GI50 (LXFL 529 NSCLC): > 100 µM; GI50 (DMS 273 small cell lung): > 100 µM; GI50 (KM20L2 colon): > 100 µM
NC1N=Nc2ccccc21 (stereo not given),–,–,> 100,> 100,> 100,> 100 µM,> 100,–,TGI (RXF-631 renal): > 100 µM
COc1cccc(C=O)c1C(=O)c1cc(O)ccc1O,76.5,> 60.8,–,> 100,> 100,> 48.2 µM,> 100,–,–
C/C(CCn1[nH]c(=O)ccc1=O)=N\NC(=O)C(N)=O,> 100,> 100,> 100,> 100,> 100,> 100 µM,> 100,–,–
O=Cc1cccc2ccc3ccccc3c12,–,–,–,–,–,–,–,73.2,–
O=C(CCC(=O)Nc1ccc(Cl)c(Cl)c1)CC(=O)c1ccc2ccccc2c1,> 100,> 100,> 100,> 100,> 100,> 100 µM,–,–,TGI (RXF-631 renal): > 100 µM
N#CC(C#N)=NNc1ccc2cn[nH]c2c1,–,–,–,–,–,–,–,> 100,–
CC1CCC2C(C)C(=O)OC3OC4(C)CCC1C32OO4 (stereo not given),> 100,> 100,> 100,> 100,> 100,> 100 µM,> 100,> 100,GI50 (MDA-N): > 100 µM; TGI (RXF-631 renal): > 100 µM
O=C(C=Nc1ccccc1C(=O)[O-])c1cccs1.O=C(C=Nc1ccccc1C(=O)[O-])c1cccs1.[Ni+2],–,–,–,–,> 100,–,–,–,–
O=[N+]([O-])c1cc(-c2nc(=S)[nH][nH]2)ccc1O,–,> 100,> 100,> 100,> 100,86.8 µM,–,–,TGI (RXF-631 renal): > 100 µM
O=C(O)CN(c1ccccc1)S(=O)(=O)c1cccc([N+](=O)[O-])c1,> 100,–,> 100,> 100,> 100,–,> 100,–,–
Nc1nc(N)c(CCCCc2ccccc2)c(C=O)n1,89.2,81.6,–,39.1,90,34.4 µM,–,–,TGI (RXF-631 renal): > 100 µM
COC(=O)[C@H]1COC(=S)N1C(=O)[C@@H](C)[C@H](O)C(C)C,> 100,> 100,> 100,> 100,> 100,> 100 µM,> 100,–,TGI (RXF-631 renal): > 100 µM
N#CC1C[C@@H]2CC3(CCC2CN1C(=O)c1ccccc1)OCCO3 (stereo not given in full),> 100,> 100,> 100,> 100,> 100,> 100 µM,> 100,–,–
Fc1cc(F)c(F)c(S)c1F,–,–,–,–,–,–,–,> 100,–
COc1cc2c(cc1OC)C(C#N)N(C(=O)c1ccccc1)C=C2OC(=O)c1ccccc1 (stereo not given),46.6,76.6,42.5,45.4,> 100,89.2 µM,47.7,–,–
COc1ccc2c(c1)[n+]([O-])c(-c1cccc(Cl)c1)c(N)[n+]2[O-],> 100,> 100,–,> 100,> 100,65.8 µM,> 100,–,–
Cc1cc(=O)[nH]c(CNC(=O)c2ccc3ccccc3c2)n1,> 100,–,> 100,> 100,> 100,> 100 µM,> 100,–,TGI (RXF-631 renal): > 100 µM
O=C(NC(=Nc1ccccc1)SCSC(=Nc1ccccc1)NC(=O)c1ccco1)c1ccco1,–,> 100,> 100,> 100,> 100,> 100 µM,66.1,–,TGI (RXF-631 renal): > 100 µM
COC(=O)Oc1nn(C(=O)OC)c(=O)c2ccccc12,–,–,–,–,–,–,–,> 100,–

SMILES,TGI (HOP-18 NSCLC) [µM],TGI (SNB-78 CNS) [µM],TGI (LXFL 529 NSCLC) [µM],TGI (DMS 273 small cell lung) [µM],TGI (KM20L2 colon) [µM],TGI (DMS 114 small cell lung),TGI (XF 498 CNS) [µM],TGI (MDA-N) [µM],also measured
COc1ccc(Nc2nc3cc(C(F)(F)F)ccc3nc2-c2ccccc2)cc1OC,–,66.7,> 100,21.8,–,41.4 µM,11.2,–,–
COc1ccc(-c2coc3cc(O)ccc3c2=O)cc1,–,–,–,–,–,–,–,> 100,–
O=C(Cc1ccccc1[N+](=O)[O-])C(CO)c1ccccc1[N+](=O)[O-] (stereo not given),> 100,> 100,> 100,> 100,> 100,> 100 µM,> 100,–,–
N#CC(C#N)=CNCCN1CCN(C=C(C#N)C#N)CC1,–,–,–,–,–,–,–,> 100,–
COC(=O)C1CSC(c2csc(CCN)n2)=N1 (stereo not given),> 100,> 100,> 100,> 100,> 100,> 100 µM,> 100,–,–
O=C(COc1ccccc1Cl)N1N=C(c2ccccc2)CC1(O)c1ccccc1 (stereo not given),–,43.2,> 100,31.8,29.6,–,35.5,–,–
N#CCCN(CCC#N)c1ccc(/C=C(/NC(=O)c2cc([N+](=O)[O-])ccc2Cl)C(=O)NN)cc1,> 100,> 100,> 100,> 100,> 100,–,–,–,–
COC(=O)C12CCC(C)(C)CC1C1=CCC3C4(C)CC(O)C(O)C(C)(C(=O)OC)C4CCC3(C)C1(CO)CC2 (stereo not given),–,–,–,–,–,–,–,26.3,–
ClCCCSSCCCCl,–,–,–,–,–,–,–,49.7,–
COc1cc2c(NCCCCCO)ncnc2c(OC)c1OC,–,–,–,–,–,–,–,> 100,–
N/C=N/S(=O)(=O)c1ccc(NC(=O)COC(=O)c2cccc3c(=O)c4ccccc4[nH]c23)cc1,> 100,–,–,> 100,–,> 100 µM,> 100,–,–
COC(=O)C1=COC2OC3C(C(C)O)C(=O)OC34C=CC1C24 (stereo not given),–,–,–,–,–,–,–,> 100,–
C/C(=N\NC(=S)N1CCN(c2ccccn2)CC1)c1ccccn1,–,21.5,14.2,15,–,0.335 µM and 0.103 µM,–,13.3,GI50 (XF 498 CNS): 0.0236 µM
Cc1cc(Cl)nc2ccc(Cc3ccc4nc(Cl)cc(C)c4c3)cc12,–,–,–,–,–,–,–,> 100,–
c1ccc2c(c1)SC(=C1Sc3ccccc3S1)S2,> 100,> 100,> 100,> 100,> 100,> 100 µM,> 100,–,TGI (RXF-631 renal): > 100 µM
CC1(C)NC(=O)N(CCCCCCN2C(=O)NC(C)(C)C2=O)C1=O,> 100,> 100,> 100,> 100,> 100,> 100 µM,–,–,–
[O-]/N=[N+](/[O-])C1CCCCC1=[N+]1CCOCC1 (stereo not given),–,> 100,> 100,–,–,> 100 µM,> 100,–,–
O=C(O)CCCCn1ccc(=O)[nH]c1=O,–,–,–,–,–,–,–,> 100,–
OCC1OC2c3ccccc3COC2C1OCc1ccccc1 (stereo not given),> 100,> 100,> 100,–,> 100,> 100 µM,> 100,–,TGI (RXF-631 renal): > 100 µM
